# Laboratory results published in patent US5859030A, “Substituted arylalkylthioalkylthiopyridines for use in the control of helicobacter bacteria” (BYK Gulden Lomberg Chemische Fabrik GmbH, priority 1994, dated 1999).
# Where a name gives a salt, the structure may show the parent alone.
# Test system: Helicobacter pylori
# Experiment: Activity against Helicobacter pylori (agar growth inhibition, methodology of Iwahi et al.)
# Type: cell-based
# Details: 96 h, Columbia agar (Oxoid), growth period of 4 days, read-out: approx. MIC50
# From the text: The compounds of the formula I were investigated regarding their activity against Helicobacter pylori following the methodology described by Tomoyuki Iwahi et al. (Antimicrobial Agents and Chemotherapy, 1991, 490-496) using Columbia agar (Oxoid) and with a growth period of 4 days. The approx. MIC 50 values listed in the following Table A resulted here for the compounds investigated (the numbers of the compounds given agree with the example numbers in the description).
row,Structure (SMILES),MIC50 [mg/L]
1,Cc1c(SCCCSc2ccncc2)ccnc1CSc1nc2cccnc2[nH]1 [Compound 14],~0.1
2,Cc1c(SCCOc2ccccc2)ccnc1CSc1nc2ccccc2[nH]1 [Compound 1],~0.05
3,"Cc1c(SCCCSC(=S)N(C)C)ccnc1CSc1nc2ccccc2[nH]1 [Compound 4, 2-{[[4-[3-Dimethvldithiocarbamoylpropylthio]-3-methyl-2-pyridinyl]methyl]thio}1 H-benzimidazole]",~0.05
4,"Cc1scnc1CCSCCCSc1ccnc(CSc2nc3ccccc3[nH]2)c1C.Cl.Cl.Cl [Compound 7, 2-{[[3-Methyl-4-[7-(5-methylthiazol-4-yl)-1,5 dithiahept-1-yl]-2-pyridinyl]methyl]thio}-1 H-benzimidazole trihydrochloride]",~0.05
5,"Cc1ccc(CSCCSc2ccnc(CSc3nc4ccccc4[nH]3)c2C)cc1 [Compound 3, 2-{[[3-Methyl-4-[5-(4-methylphenyl)-1,4-dithia-pent-1-yl]-2-pvridinyl]methyl]thio}-1 H-benzimidazole]",~0.05
6,"Cc1c(SCCCSCc2ccc(CN(C)C)o2)ccnc1CSc1nc2ccccc2[nH]1 [Compound 6, trihydrochloride]",~0.05
7,"Cc1c(SCCCSc2nc3ccccc3s2)ccnc1CSc1nc2ccccc2[nH]1 [Compound 10, 2-{[[4-[(5-Benzothiazol-2-yl)-1,5-dithiapent-1-yl]-3-methyl-2-pyridinyl]methyl]thio}-1 H-benzimidazole]",~0.1
8,Cc1c(SCCCCOc2ccccc2)ccnc1CSc1nc2ccccc2[nH]1 [Compound 2],~0.1
9,"Cc1c(SCCCSc2nc3ccccc3o2)ccnc1CSc1nc2ccccc2[nH]1 [Compound 11, 2-{[[4-[(5-Benzoxazol-2-yl)-1,5-dithiapent-1-yl]-3-methyl-2-pyridinyl]methyl]thio}1 H-benzimidazole]",~0.1
10,"Cc1c(SCCCSCc2ccco2)ccnc1CSc1nc2ccccc2[nH]1 [Compound 5, 2-{[[4-[(6-Furan-2-yl)-1,5-dithiahex-1-yl]-3-methyl-2-pyridinyl]methyl]thio}-1 H-benzimidazole]",~0.05
